We go through 29 molecules from patent publication US6794402B2, “Bicyclic cyclohexylamines and their use as NMDA receptor antagonists” (Warner-Lambert Company, priority 2000, dated 2004).

T1 sequence (Q00960 27-1482, other chains not shown): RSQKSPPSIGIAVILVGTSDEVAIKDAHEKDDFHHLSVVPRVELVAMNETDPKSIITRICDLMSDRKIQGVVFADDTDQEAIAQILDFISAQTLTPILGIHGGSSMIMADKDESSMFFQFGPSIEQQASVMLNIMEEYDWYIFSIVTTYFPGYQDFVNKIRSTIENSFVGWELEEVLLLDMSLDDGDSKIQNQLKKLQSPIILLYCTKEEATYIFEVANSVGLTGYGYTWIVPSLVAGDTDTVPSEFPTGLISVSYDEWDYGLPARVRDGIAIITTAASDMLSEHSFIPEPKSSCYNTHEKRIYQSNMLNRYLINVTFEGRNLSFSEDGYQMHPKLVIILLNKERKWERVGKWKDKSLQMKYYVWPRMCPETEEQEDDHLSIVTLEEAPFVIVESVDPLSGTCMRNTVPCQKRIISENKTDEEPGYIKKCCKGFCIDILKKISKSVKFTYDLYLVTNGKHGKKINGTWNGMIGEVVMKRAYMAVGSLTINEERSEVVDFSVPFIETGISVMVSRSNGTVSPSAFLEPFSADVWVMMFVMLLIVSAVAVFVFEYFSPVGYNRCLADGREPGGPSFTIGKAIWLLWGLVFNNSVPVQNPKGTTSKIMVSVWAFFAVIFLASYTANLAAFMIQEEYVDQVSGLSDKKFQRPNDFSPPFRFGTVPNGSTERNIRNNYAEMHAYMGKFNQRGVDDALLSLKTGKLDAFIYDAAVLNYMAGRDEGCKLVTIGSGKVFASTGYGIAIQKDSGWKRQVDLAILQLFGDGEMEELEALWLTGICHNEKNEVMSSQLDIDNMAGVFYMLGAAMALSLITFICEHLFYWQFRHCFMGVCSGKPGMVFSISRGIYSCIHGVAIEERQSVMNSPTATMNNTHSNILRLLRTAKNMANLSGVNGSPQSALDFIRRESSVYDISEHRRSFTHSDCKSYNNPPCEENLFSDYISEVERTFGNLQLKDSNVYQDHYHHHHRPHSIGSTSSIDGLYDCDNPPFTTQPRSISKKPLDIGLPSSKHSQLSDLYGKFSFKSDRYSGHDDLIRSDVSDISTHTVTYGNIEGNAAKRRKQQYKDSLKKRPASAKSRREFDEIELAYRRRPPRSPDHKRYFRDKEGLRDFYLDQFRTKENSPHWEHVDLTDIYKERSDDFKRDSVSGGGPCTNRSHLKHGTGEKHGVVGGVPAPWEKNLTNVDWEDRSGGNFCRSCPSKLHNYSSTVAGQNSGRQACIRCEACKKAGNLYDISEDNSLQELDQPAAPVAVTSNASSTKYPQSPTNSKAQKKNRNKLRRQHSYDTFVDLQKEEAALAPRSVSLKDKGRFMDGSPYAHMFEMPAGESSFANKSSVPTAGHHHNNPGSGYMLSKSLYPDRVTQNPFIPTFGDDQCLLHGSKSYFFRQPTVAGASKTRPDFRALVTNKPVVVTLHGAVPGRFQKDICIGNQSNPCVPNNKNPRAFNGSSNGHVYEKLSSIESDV

This experiment addresses T1, [3H]ifenprodil binding site, rat forebrain membranes (Rattus norvegicus, UniProt P35439+Q00960).
T1 construct: membrane fraction was prepared from frozen adult rat forebrains; tissue Zivic-Miller Laboratories, Inc; host or cells: adult rat forebrain, washed buffy coat membrane fraction
Kind of experiment: [3H]Ifenprodil binding assay. The conditions noted are these: 4 nM [3H]-ifenprodil, 2 hours at room temperature. As for the experimental part:
All buffers and reagents used in assay incubations or to dissolve drugs were prepared using water purified through a Milli-Q reverse osmosis system (Millipore Corp, Bedford, Mass.) and treated with UV emissions. Prior to use in the assays, buffers were further filtered through a sterile Corning filtration unit (Corning Glass Works, Corning, N.Y.) containing a 0.2-micron filter. Buffer used to rinse the membranes on the assay filters was prepared with purified water, but was not refiltered and was stored no longer than 5 days. Stock solutions of the drugs (usually 10 mM) were dissolved in 20 mM HEPES-KOH buffer pH 7.4 (assay buffer) with the addition of 1 to 5 μL of glacial AcOH, if needed to keep them in solution. For eliprodil the stock solution was buffered with the addition of 10% DMSO. All subsequent dilutions from stock were made in buffer.
An extensively washed buffy coat membrane fraction was prepared from frozen adult rat forebrains (Zivic-Miller Laboratories, Inc., Zelienople, Pa.) as described previously (Coughenour L. L., Cordon, J. J., J. Pharmacol. Exp. Ther., 1997;280:584-592) and stored at −80° C. On the day of the assay, pellets were resuspended in 35 mL of assay buffer at pH 7.4 using a Polytron setting 6. After incubation at 37° C. for 30 minutes in a shaking water bath, the homogenate was centrifuged 40,000×g for 10 minutes at 4° C. The pellets were resuspended in fresh buffer and centrifuged 3 more times before final suspension for use in the assay.
[^3H]Ifenprodil Binding. Triplicate incubations were carried out in a volume of 0.5 mL in 1.3 mL polypropylene tubes (Marsh Biomedical Products Inc., Rochester, N.Y.) for 2 hours at room temperature. Incubations contained test agents, membranes (100-200 μg protein) and 4 nM[^3H]-ifenprodil in 20 mM HEPES-KOH buffer, pH 7.4 (assay buffer). Assays were started by addition of the membranes. Bound radioligand was separated by filtration under reduced pressure using a Tomtec Mach II, 96-well cell harvester (Tomtec Inc., Orange, Colo.). Filtration was through Whatman GF/B glass fiber filters (Whatman Ltd, Maidstone, England), which had been soaked for at least 15 minutes in 0.3% polyethylenimine and allowed to air dry. The filters were rinsed with 3 mL of ice cold assay buffer within 6 seconds. Air was allowed to pass through the filters for an additional 10 seconds to remove residual moisture. The filter mat was supported on a cold (−20° C.) teflon support, and filters from individual wells were separated and placed in Mini Poly-Q vials (Beckman Instruments Inc., Fullerton, Calif.) and filled with 4 mL of scintillation cocktail (Beckman Ready Protein^+). Radioactivity retained on the filter was determined by liquid scintillation spectrophotometry. Nonspecific binding was defined as the binding in the presence of 1 mM ifenprodil. Specific binding was 90%.
Data analysis. Binding curves were statistically analyzed for a best one or two site competition fit using GraphPad Prism software (GraphPad Software Inc., San Diego, Calif.). The normalized data was fit by nonweighted nonlinear regression to either [formula]
Control data was entered as 100%, and no parameters were constrained. Inhibition curves were compared by ANOVA with post test comparisons of the logIC50 using Dunnett's multiple comparisons post test or Student's nonpaired, two-tailed t-test (GraphPad InStat software).
Broadly, the IC50 is the concentration that inhibits the measured activity by half. Read a low IC50 as higher potency. In the case of `C=CCN(CCCc1ccc(F)cc1)[C@H]1CC[C@H](c2ccc3[nH]c(=O)oc3c2)CC1` [Example 32, 6-(trans-4-{Allyl-[3-(4-fluorophenyl)propyl]amino}cyclohexyl)-3H-benzoxazol-2-one], the IC50 is 158 nM.

As to `CN(CCCC1CCCCC1)[C@H]1CC[C@H](c2ccc3[nH]c(=O)oc3c2)CC1` [Example 49b, 6-{trans-4-[(3-Cyclohexylpropyl)methylamino]cyclohexyl}-3H-benzoxazol-2-one], the IC50 came out at 22 nM.

Take `CN(CCCc1ccc(F)cc1)[C@H]1CC[C@@H](c2ccc3[nH]c(=O)oc3c2)CC1` [Example 19, 6-(cis-4-{[3-(4-Fluorophenyl)propyl]methylamino}cyclohexyl)-3H-benzoxazol-2-one]: the IC50 was 185 nM.

As for `NC(=O)CN(CCCc1ccc(F)cc1)[C@H]1CC[C@H](c2ccc3[nH]c(=O)oc3c2)CC1` [Example 34, 2-{[3-(4-Fluorophenyl)propyl]-[4-(2-oxo-2,3-dihydro-benzoxazol-6-yl)-cyclohexyl]amino}acetamide], the IC50 worked out at 152 nM.

`Cc1c(F)cccc1CCCN(C)[C@H]1CC[C@H](c2ccc3[nH]c(=O)oc3c2)CC1` [Example 48b, 6-(trans-4-{[3-(3-Fluoro-2-methylphenyl)propyl]methylamino}cyclohexyl)-3H-benzoxazol-2-one]: the IC50 worked out at 20 nM.

Molecule `CN(CCCc1ccc(Cl)cc1)[C@H]1CC[C@H](c2ccc3[nH]c(=O)oc3c2)CC1` [Example 38b, 6-(trans-4-{[3-(4-Chlorophenyl)propyl]methylamino}cyclohexyl)-3H-benzoxazol-2-one] yielded an IC50 of 7 nM.

`CN(CCCc1ccsc1)[C@H]1CC[C@H](c2ccc3[nH]c(=O)oc3c2)CC1` [Example 52b, 6-[trans-4-{[3-(3-Thiophen-3-yl)propyl]methylamino}cyclohexyl)-3H-benzoxazol-2-one]: the IC50 was 3 nM.

Molecule `Cc1cc2[nH]c(=O)oc2cc1[C@H]1CC[C@H](N(C)CCCc2ccc(F)cc2)CC1` [Example 64, 6-(4-{[3-(4-Fluorophenyl)propyl]methyl-amino}cyclohexyl)-5-methyl-3H-benzoxazol-2-one] registered an IC50 of 45 nM.

`CC(C)Cc1ccc(CCCN(C)[C@H]2CC[C@H](c3ccc4[nH]c(=O)oc4c3)CC2)cc1` [Example 56, 6-(trans-4-{[3-(4-Isobutylphenyl)propyl]methylamino}cyclohexyl)-3H-benzoxazol-2-one]: the IC50 was 71 nM.

In turn, `CN(CCCc1ccc(F)cc1)[C@H]1CC[C@H](c2ccc3[nH]c(=O)[nH]c3c2)CC1` [Example 63, 5-(trans-4-{[3-(4-Fluorophenyl)propyl]methylamino}cyclohexyl)-1,3-dihydrobenzoimidazol-2-one] registered an IC50 of 2 nM.

In the case of `CC(Cc1ccccc1)CN(C)[C@H]1CC[C@H](c2ccc3[nH]c(=O)oc3c2)CC1` (stereo partly drawn) [Example 50b, 6-(trans-{4-[Methyl(2-methyl-3-phenylpropyl)amino]cyclohexyl})-3H-benzoxazol-2-one], the IC50 came to 351 nM.

For the molecule `CCC[C@@H](CSc1ccc(F)cc1)N(CC)[C@H]1CC[C@H](c2ccc3[nH]c(=O)oc3c2)CC1` [Example 36b, (S)-6-{trans-4-[Ethyl(1-(4-fluorophenylsulfanyl)pentan-2-yl)amino]-cyclohexyl}-3H-benzoxazol-2-one], the IC50 is more than 1000 nM.

In the case of `CN(CCN(C)[C@H]1CC[C@H](c2ccc3[nH]c(=O)oc3c2)CC1)c1ccccc1` [Example 60, 6-(trans-4-{Methyl-[2-(Methylphenylamino)ethyl]amino}cyclohexyl)-3H-benzoxazol-2-one], the IC50 was more than 1000 nM.

The molecule `Cc1ccc(CCCN(C)[C@H]2CC[C@H](c3ccc4[nH]c(=O)oc4c3)CC2)c(C)c1` [Example 41b] came in with an IC50 of 68 nM.

`O=c1[nH]c2ccc([C@H]3CC[C@H](N(CCO)CCCc4ccc(F)cc4)CC3)cc2o1` [Example 29, 6-{trans-4-[[3-(4-Fluorophenyl)propyl]-(2-hydroxyethyl)amino]cyclohexyl}-3H-benzoxazol-2-one] showed an IC50 of 18 nM.

For the molecule `O=c1[nH]c2ccc([C@H]3CC[C@H](NCCCc4ccc(F)cc4)CC3)cc2[nH]1` [Example 62, 5-{trans-4-[3-(4-Fluorophenyl)propylamino]cyclohexyl}-1,3-dihydrobenzoimidazol-2-one], the IC50 is 17 nM.

`CN(CCCc1ccc(Cl)cc1Cl)[C@H]1CC[C@H](c2ccc3[nH]c(=O)oc3c2)CC1` [Example 54, 6-(trans-4-{[3-(2,4-Dichlorophenyl)propyl]methylamino}cyclohexyl)-3H-benzoxazol-2-one] registered an IC50 of 34 nM.

For `CN(CCCc1ccc(F)c(F)c1F)[C@H]1CC[C@H](c2ccc3[nH]c(=O)oc3c2)CC1` [Example 55, 6-(trans-4-{[3-(2,3,4-Trifluorophenyl)propyl]methylamino}cyclohexyl)-3H-benzoxazol-2-one], the concentration for half-maximal inhibition (IC50) was found to be 5 nM.

Molecule `CN(CC#Cc1ccccc1)[C@H]1CC[C@H](c2ccc3[nH]c(=O)oc3c2)CC1` [Example 51b, 6-(trans-{4-[Methyl(3-phenyl-prop-2-ynyl)amino]cyclohexyl})-3H-benzoxazol-2-one] showed an IC50 of 550 nM.

Regarding `CN(CCCc1ccccc1F)[C@H]1CC[C@H](c2ccc3[nH]c(=O)oc3c2)CC1` [Example 46b, 6-(trans-4-{[3-(2-Fluorophenyl)propyl]methylamino}cyclohexyl)-3H-benzoxazol-2-one], the IC50 was 9 nM.

Consider `CN(CCCc1ccc(F)cc1Cl)[C@H]1CC[C@H](c2ccc3[nH]c(=O)oc3c2)CC1` [Example 44b, 6-(trans-4-{[3-(2-Chloro-4-fluorophenyl)propyl]methylamino}cyclohexyl)-3H-benzoxazol-2-one], for which the IC50 stood at 7 nM.

`CCN([C@H]1CC[C@H](c2ccc3[nH]c(=O)oc3c2)CC1)[C@@H](C)CCc1ccccc1` [Example 28, 6-(trans-4-{Ethyl-[(S)-1-methyl-3-phenylpropyl]amino}cyclohexyl)-3H-benzoxazol-2-one] registered an IC50 of 184 nM.

Turning to `NCCN(CCCc1ccc(F)cc1)[C@H]1CC[C@H](c2ccc3[nH]c(=O)oc3c2)CC1` [Example 35, 6-(trans-4-{(2-Aminoethyl)-[3-(4-fluorophenyl)propyl]amino}cyclohexyl)-3H-benzoxazol-2-one], the IC50 came out at 170 nM.

Consider `COc1cc2[nH]c(=O)oc2cc1[C@H]1CC[C@H](N(C)CCCc2ccc(F)cc2)CC1` [Example 65, 6-(trans-4-{[3-(4-Fluorophenyl)propyl]methylamino}cyclohexyl)-5-methoxy-3H-benzoxazol-2-one], for which the IC50 is 67 nM.

In turn, `CCN(CCCc1ccc(C(F)(F)F)cc1)[C@H]1CC[C@H](c2ccc3[nH]c(=O)oc3c2)CC1` [Example 26] yielded an IC50 of 188 nM.

In turn, `CC(C)c1ccc(CCCN(C)[C@H]2CC[C@H](c3ccc4[nH]c(=O)oc4c3)CC2)cc1` [Example 53, 6-(trans-4-{[3-(4-Isopropylphenyl)propyl]methylamino}cyclohexyl)-3H-benzoxazol-2-one] gave an IC50 of 2 nM.

`CC(C)CN(CCCc1ccc(F)cc1)[C@H]1CC[C@H](c2ccc3[nH]c(=O)oc3c2)CC1` [Example 33, 6-(trans-4-{[3-(4-Fluorophenyl)propyl]isobutylamino}cyclohexyl)-3H-benzoxazol-2-one]: the IC50 is more than 1000 nM.

For the molecule `CN(CCCc1ccc(F)cc1F)[C@H]1CC[C@H](c2ccc3[nH]c(=O)oc3c2)CC1` [Example 24b, 6-(trans-4-{[3-(2,4-Difluorophenyl)propyl]methylamino}cyclohexyl)-3H-benzoxazol-2-one], the IC50 was 14 nM.

The molecule `O=c1[nH]c2ccc([C@H]3CC[C@H](N(CCCc4ccc(F)cc4)Cc4ccoc4)CC3)cc2o1` [Example 31, 6-(trans-4-{[3-(4-Fluorophenyl)propyl]furan-3-ylmethylamino}cyclohexyl)-3H-benzoxazol-2-one] showed an IC50 of 465 nM.
